Reference: US20200239398A1, “METHYLENE-CYCLOALKYLACETATE DERIVATIVES AND THEIR USE IN TREATMENT OF NEUROTROPIC CONDITIONS” (Yissum Research Development Company of The Hebrew …, priority 2018, published 2020)
Like-named read-outs stand apart in the source and are kept apart here.

Key:
[1] = test system: PC12 cells; assay: PC12 cell neurotropic assay (neurite outgrowth); type: cell-based, rat; details: 10 μM
Description: PC12 cells were grown in T-200 flasks in high glucose (4.5 gr/L) DMEM medium supplemented with 7% FCS, 7% horse serum and 1% penicillin and streptomycin. Cells were incubated at 37° C. in a humidified incubator containing 6% CO2. All experiments were carried out in a clean room, according to ISO7 requirements (10,000 particles/m^3).
Tissue culture Falcon plates were coated with 200 μg/ml collagen type 1 and placed under UV light for 30 minutes for sterilization. Thereafter, one ml of PC12 cell suspension (5000 cells/well) was applied in 12 or 24 well plate, respectively. The cultures were grown in the incubator two days before exposure to investigated compound.
This experimental procedure contained two controls. The first consisted of untreated cells (negative control), representing the random effect: “noise signal”—the ability of cells to spontaneously grow neurite outgrowth which in seven days are of a length less than two-fold cell diameter. Also, negative controls consisted of cultures treated with 1% DMSO, solvent used to solubilize all compounds. The positive control consisted of cells treated with 50 ng/ml NGF, indicating maximal neurite outgrowth that can be achieved in this model. The experimental group consisted of PC12 cells treated with synthetic compounds. In each experiment, after two and seven days, six cultures were evaluated for neurotropic effect. These consecutive observations allow measurement of the progress of neurite outgrowth elongation and the percentage of cells with neurites.^31
In order to assess neurotropic effect, the neurite outgrowth length in each culture was quantified. For this purpose, each culture was placed under an inverted microscope and photographed by the attached camera. Each well was photographed at three to five representative areas. After acquiring the photos, they were analyzed by ImageJ, NIH software. The neurite outgrowth was estimated by fractal dimension (Df), a statistical parameter that describes the fractional space (area and length) filled by neurite outgrowth. Df ranged from 0 to 1.20. This method estimates the amount of picsel covered by neurites/cells compared to empty space per square field, and therefore plotting log (number of square boxes) vs. log (size in pixels) relationship generates a linear curve with Df representing the slope of the curve. Every photograph that was taken, was opened in a Photoshop software and a new layer was generated on it. Using a 5-pixel wide digital pencil tool, all the outgrowths were marked and the layer with the markers (outgrowth network) was saved in a 0-255 gray scale as described in FIG. 2. Then, the saved layer was opened by ImageJ NIH software. The software “skeletonized” the layer, measured the length and complexity of every outgrowth in a fractal box count and calculated the fractional dimension parameter (Df).^32
Each experiment was performed in duplicates and repeated three to four times (n=6-8). By using SPSS software, one way ANOVA was performed for the fractional dimension of each compound, in order to evaluate the neurotropic effect. In case of significance, Bonferroni post-hoc analysis was performed. The results were considered significant when p<0.05.

[2] = test system: dorsal root ganglion (DRG) sensory neurons; assay: Neurite outgrowth in dorsal root ganglion (DRG) explants; type: cell-based, mice
Description: To perform these experiments, about 10 dorsal root ganglia (DRGs) were excised under sterile conditions and transferred to 0.25% Type IV collagenase (Sigma-Aldrich-Merck) in Dulbecco's Modified Eagle Medium (DMEM) at 37° C. for 45 min, followed by a 20-min incubation with 0.025% trypsin in DMEM, to digest the associated connective tissue surrounding the neurons. After plating the ganglia onto collagen (50 μg/ml)/laminin mixture (5 μg/ml)-coated tissue culture wells for 24 h, DRG neurons were cultured for additional 1-7 days in fresh Neurobasal A/B27 containing either 50 ng/ml NGF (positive control), blank medium (DMSO 1%) control and HU-MCA-13. The cultures were photographed; thereafter the ganglia were immune-stained for neuronal tubulin and again photographed using a fluorescent microscope. Image analysis was performed by a researcher blinded to the experimental conditions. Neurite outgrowth distance measured in micrometers, was quantified as for PC12 cultures.

[3] = molecular target: Adrenergic Receptor α1A (ADRA1A) (Homo sapiens, UniProt P35348); assay: SAFETYscan ADRA1A Calcium Flux; type: cell-based; details: 10 μM HU-MCA-13, read-out: Maximal Response
[4] = molecular target: Arginine Vasopressin Receptor 1A (AVPR1A) (Homo sapiens, UniProt P37288); assay: SAFETYscan AVPR1A Calcium Flux; type: cell-based; details: 10 μM HU-MCA-13, read-out: Maximal Response
[5] = molecular target: Muscarinic acetylcholine Receptor M2 (CHRM2) (Homo sapiens, UniProt P08172); assay: SAFETYscan CHRM2 cAMP; type: cell-based; details: 10 μM HU-MCA-13, read-out: Maximal Response
[6] = molecular target: Dopamine Receptor D2 (DRD2S) (Homo sapiens, UniProt P14416); assay: SAFETYscan DRD2S cAMP; type: cell-based; details: 10 μM HU-MCA-13
[7] = molecular target: T1, Nuclear Hormone Glucocorticoid Receptor (GR) (Homo sapiens, UniProt P04150); assay: SAFETYscan GR Nuclear Hormone Receptor Translocation; type: cell-based; details: 10 μM HU-MCA-13, read-out: Maximal Response
T1 construct: DiscoverX (SAFETYscan contract panel)
T1 sequence (P04150 whole entry): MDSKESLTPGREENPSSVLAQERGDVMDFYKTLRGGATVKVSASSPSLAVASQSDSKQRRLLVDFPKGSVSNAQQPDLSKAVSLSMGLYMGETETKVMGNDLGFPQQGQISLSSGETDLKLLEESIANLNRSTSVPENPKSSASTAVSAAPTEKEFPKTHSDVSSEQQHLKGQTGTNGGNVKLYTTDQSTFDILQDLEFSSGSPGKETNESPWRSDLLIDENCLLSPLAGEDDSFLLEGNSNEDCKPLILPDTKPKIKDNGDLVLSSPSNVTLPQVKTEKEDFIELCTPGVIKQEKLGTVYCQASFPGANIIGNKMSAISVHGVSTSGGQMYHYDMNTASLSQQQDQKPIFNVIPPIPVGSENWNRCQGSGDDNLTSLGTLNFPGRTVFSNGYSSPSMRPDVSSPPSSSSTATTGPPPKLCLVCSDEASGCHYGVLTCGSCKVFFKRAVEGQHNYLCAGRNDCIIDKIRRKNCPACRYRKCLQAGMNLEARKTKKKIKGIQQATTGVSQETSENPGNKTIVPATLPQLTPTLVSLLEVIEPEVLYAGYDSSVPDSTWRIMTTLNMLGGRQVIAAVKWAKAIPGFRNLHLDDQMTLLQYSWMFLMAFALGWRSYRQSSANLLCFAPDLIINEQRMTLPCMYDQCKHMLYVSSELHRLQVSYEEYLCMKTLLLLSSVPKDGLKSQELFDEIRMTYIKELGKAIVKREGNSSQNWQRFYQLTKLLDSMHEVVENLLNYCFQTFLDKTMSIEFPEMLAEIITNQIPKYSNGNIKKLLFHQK

Chain of Muscarinic acetylcholine Receptor M2 (CHRM2) (P08172 whole entry): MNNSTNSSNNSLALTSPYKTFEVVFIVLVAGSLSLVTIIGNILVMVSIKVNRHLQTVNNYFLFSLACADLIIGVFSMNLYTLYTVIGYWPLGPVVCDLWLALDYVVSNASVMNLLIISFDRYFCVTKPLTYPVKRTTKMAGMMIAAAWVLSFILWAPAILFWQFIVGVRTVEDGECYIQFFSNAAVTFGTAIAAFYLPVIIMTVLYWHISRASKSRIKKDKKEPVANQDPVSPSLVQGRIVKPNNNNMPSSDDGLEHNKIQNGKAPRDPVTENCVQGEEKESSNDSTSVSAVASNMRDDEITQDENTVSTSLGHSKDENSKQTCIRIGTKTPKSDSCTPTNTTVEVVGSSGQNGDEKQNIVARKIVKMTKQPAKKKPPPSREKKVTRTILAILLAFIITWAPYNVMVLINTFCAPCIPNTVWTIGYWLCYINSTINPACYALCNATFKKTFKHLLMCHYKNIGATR
Chain of Adrenergic Receptor α1A (ADRA1A) (P35348 whole entry): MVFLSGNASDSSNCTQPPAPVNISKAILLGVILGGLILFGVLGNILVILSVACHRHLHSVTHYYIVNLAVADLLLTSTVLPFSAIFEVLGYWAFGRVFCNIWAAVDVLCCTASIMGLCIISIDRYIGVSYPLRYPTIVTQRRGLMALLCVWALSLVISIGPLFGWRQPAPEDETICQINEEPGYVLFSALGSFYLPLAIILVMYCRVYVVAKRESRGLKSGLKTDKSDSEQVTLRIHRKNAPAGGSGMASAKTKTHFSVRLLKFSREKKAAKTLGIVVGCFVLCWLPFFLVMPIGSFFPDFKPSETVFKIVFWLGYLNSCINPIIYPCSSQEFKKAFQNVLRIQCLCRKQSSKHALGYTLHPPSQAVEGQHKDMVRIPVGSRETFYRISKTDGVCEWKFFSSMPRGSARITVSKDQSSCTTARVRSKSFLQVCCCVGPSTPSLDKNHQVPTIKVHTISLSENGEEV
Chain of Dopamine Receptor D2 (DRD2S) (P14416 1-414 isoform P14416-2): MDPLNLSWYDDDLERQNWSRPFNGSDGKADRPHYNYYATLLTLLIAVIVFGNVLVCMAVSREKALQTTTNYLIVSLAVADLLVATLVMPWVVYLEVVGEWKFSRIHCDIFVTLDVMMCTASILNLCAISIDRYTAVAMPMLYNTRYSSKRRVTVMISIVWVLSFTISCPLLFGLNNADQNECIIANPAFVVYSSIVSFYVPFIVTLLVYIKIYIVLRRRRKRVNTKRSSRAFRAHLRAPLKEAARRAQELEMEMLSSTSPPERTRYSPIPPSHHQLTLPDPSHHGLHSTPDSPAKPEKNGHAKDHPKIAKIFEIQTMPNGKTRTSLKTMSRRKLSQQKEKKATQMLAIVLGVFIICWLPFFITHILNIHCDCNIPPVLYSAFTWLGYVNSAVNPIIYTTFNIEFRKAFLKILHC
Chain of Arginine Vasopressin Receptor 1A (AVPR1A) (P37288 whole entry): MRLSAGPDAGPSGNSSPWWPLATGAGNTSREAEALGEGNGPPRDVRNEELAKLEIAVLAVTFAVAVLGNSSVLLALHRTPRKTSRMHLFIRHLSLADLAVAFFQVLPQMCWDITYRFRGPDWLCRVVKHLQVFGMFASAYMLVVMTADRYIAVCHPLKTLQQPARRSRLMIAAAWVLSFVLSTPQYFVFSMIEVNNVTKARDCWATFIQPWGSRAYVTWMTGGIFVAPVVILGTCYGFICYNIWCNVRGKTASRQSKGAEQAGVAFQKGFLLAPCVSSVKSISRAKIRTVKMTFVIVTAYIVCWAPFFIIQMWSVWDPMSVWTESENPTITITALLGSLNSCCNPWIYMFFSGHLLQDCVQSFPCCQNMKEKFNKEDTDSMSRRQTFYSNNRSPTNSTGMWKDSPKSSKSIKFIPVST

## C=CCC1CCC[C@@H](CCC(=O)O)C1=C (stereo partly drawn) [Compound 13]
[1]; PC12 cells, seven days of treatment, Df = fractal dimension of neurite outgrowth
  Neurotropic effect (mean ± SE) Seven Days Df: 0.45 ± 0.01
[1]; PC12 cells, two days of treatment, Df = fractal dimension of neurite outgrowth
  Neurotropic effect (mean ± SE) Two Days Df: 0.39 ± 0.01
[1]; seven days, relative to NGF 50 ng/ml
  Neurotropic effect Seven Days NGF (%): 97.8%
[1]; two days, relative to NGF 50 ng/ml
  Neurotropic effect Two Days NGF (%): 84.8%
[1]; after seven days of treatment
  neurotropic activity (in words): significant neurotropic activity
[1]; after two days of treatment
  inducing fast neurite outgrowth (in words): most active
[2]; HU-MCA-13 5 μM, 5 days
  neurite outgrowth, neurotropic effect (in words): strong neurite outgrowth, neurotropic effect like NGF
[2]; HU-MCA-13 compared with NGF-treated ganglia
  maturity of neurites (cytoskeletal-tubulin protein staining): less mature than in NGF-treated ganglia
[3]; Agonist mode
  Emax: 1.12%
[3]; Antagonist mode
  Emax: 3.06%
[4]; Agonist mode
  Emax: 0.29%
[4]; Antagonist mode
  Emax: 0%
[5]; Agonist mode
  Emax: 11.7%
[5]; Antagonist mode
  Emax: 0%
[6]; read-out: Maximal Response, Agonist mode
  Emax: 0%
[6]; read-out: Maximal Response, Antagonist mode
  Emax: 0.51%
[7]; Agonist mode
  Emax: 0%
[7]; Antagonist mode
  Emax: 2.28%
